The conditions of data set [1]: ref Rice et al., 2019; cited from earlier work. From the text:
Prostate cancer is the second leading cause of cancer death among men in the United States. According to the National Cancer Institute over 3 million men in the United States are living with prostate cancer, with 288,300 additional cases and 34,700 deaths expected in 2023. Androgen receptor (AR) signaling plays a key role in development of Benign prostatic hyperplasia (BPH) and prostate cancer ([Shiota et al., 2011]; [Gioeli and Paschal, 2012]; [Mills, 2014]; [Wong et al., 2014]; [Tan et al., 2015]). Therefore, androgen or Androgen R targeted therapy has become a major focus for the prevention ...

The test system of data set [2] is castration-resistant prostate cancer (CRPC). To be noted: cited from earlier work.
A further data set deals with AR. More on the design: method as in Rice et al., 2019. To be noted: ref Rice et al., 2019; cited from earlier work. From the text:
Prostate cancer is the second leading cause of cancer death among men in the United States. […] Therefore, androgen or Androgen R targeted therapy has become a major focus for the prevention ...

The target in data set [3] is T1, glucocorticoid receptor (Homo sapiens, UniProt P04150).
T1 sequence (P04150 1-777): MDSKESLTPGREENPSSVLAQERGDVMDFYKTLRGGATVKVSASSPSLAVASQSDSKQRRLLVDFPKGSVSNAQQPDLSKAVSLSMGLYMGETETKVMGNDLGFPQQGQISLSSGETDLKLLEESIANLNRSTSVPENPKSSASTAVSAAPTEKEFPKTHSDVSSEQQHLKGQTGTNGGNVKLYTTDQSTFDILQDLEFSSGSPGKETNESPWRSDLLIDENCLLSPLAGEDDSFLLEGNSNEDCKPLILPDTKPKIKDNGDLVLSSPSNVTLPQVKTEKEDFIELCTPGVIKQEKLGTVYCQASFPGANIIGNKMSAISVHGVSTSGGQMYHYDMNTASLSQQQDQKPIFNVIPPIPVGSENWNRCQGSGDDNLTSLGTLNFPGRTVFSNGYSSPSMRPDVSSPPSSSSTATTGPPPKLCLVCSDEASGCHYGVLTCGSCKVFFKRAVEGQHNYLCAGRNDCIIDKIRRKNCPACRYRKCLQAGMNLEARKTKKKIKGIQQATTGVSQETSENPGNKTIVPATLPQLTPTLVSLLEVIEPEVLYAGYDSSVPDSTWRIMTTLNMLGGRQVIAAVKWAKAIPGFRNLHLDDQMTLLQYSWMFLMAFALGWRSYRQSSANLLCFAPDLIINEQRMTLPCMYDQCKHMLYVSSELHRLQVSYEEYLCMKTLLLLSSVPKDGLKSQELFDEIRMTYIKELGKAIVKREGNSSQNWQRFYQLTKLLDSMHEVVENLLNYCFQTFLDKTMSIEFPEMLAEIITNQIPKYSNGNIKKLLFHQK
Put plainly: AR (ARE) luciferase reporter assay, LNCaP-GR cells with DEX (GR-driven). The data set is classed as cell-based. How it is done:
(§1) The 22RV1, LNCaP and PC3 cell lines were stably transfected with a PGL4.2 luciferase reporter (Promega, Madison, USA). This reporter contains a sequence (3xgtaattgcagaacagcaagtgctagctctc) representing the wild type of Androgen Response Element (ARE) derived from the Prostate-Specific Antigen (PSA) promoter. […] This transfection was accomplished using Lipofectamine 3000 (Thermo Fisher Scientific, Waltham, MA). Stable clones were selected and maintained with puromycin (0.5 μg/mL). […] The pcDNA5 plasmid (Thermo Fisher Scientific, Waltham, MA), carrying the full open reading frame of GR, was transfected into LNCaP cells, and hygromycin (50 μg/mL) was employed to select and maintain stable clones.
(§2) 10^4 reporter cells per well of 96-well plate were seeded in RPMI1640 media supplemented with 5% dialysis activated carbon treated FBS, 50 μg/mL Kanamycin in a 37°C, 5% CO2 incubator for 48 h. Cells were treated with herbal extracts at 30, 100, 300, and 600 μg/mL for 24 h in a 37°C-CO2 incubator. […] Dexamethasone (50 nM) was used to stimulate glucocorticoid receptor activity. Cells were lysed using luciferase lysis buffer after which luciferase buffer with luciferin was added to generate luminescence. Luminescence was recorded using a luminescence microplate reader. The IC50 is the concentration of treatment agent required to reduce the measured luminescence to half of its maximal value.
(§3) GAPDH was used as protein loading control for normalization. […] Details of experimental procedures are given in Materials and methods.

Data set [4] deals with T1, glucocorticoid receptor. Put plainly: AR (ARE) luciferase reporter assay, PC3 cells (no ligand or DEX, GR-driven). The format is cell-based. More on the design: PC3 cells that only express GR and respond solely to DEX; endogenous in cells; host or cells: PC3. Particulars: 24 h. The procedure:
as §1, §2, §3

The target of data set [5] is T1, glucocorticoid receptor. Put plainly: AR (ARE) luciferase reporter assay, 22RV1 cells with DEX (GR-driven). More on the design: AR luciferase reporter assay using 22RV1 cells that express GR; endogenous in cells; host or cells: 22RV1. The data set is classed as cell-based. How it is done:
as §1, §2, §3

The next data set relates to 22RV1 tumor. Put plainly: 22RV1 xenograft tumor growth in NCR-nude mice. The data set is classed as in vivo, human. Particulars: enzalutamide alone, 5 mg/kg po QD, 7 days. From the text:
Differences were considered statistically significant at p < 0.05.

Data set [6] addresses T2, androgen receptor (Homo sapiens, UniProt P10275, T878A).
T2 construct: LNCaP cells that only express AR and respond solely to DHT; endogenous in cells; host or cells: LNCaP; LNCaP-GR
T2 sequence (P10275 1-920 T878A): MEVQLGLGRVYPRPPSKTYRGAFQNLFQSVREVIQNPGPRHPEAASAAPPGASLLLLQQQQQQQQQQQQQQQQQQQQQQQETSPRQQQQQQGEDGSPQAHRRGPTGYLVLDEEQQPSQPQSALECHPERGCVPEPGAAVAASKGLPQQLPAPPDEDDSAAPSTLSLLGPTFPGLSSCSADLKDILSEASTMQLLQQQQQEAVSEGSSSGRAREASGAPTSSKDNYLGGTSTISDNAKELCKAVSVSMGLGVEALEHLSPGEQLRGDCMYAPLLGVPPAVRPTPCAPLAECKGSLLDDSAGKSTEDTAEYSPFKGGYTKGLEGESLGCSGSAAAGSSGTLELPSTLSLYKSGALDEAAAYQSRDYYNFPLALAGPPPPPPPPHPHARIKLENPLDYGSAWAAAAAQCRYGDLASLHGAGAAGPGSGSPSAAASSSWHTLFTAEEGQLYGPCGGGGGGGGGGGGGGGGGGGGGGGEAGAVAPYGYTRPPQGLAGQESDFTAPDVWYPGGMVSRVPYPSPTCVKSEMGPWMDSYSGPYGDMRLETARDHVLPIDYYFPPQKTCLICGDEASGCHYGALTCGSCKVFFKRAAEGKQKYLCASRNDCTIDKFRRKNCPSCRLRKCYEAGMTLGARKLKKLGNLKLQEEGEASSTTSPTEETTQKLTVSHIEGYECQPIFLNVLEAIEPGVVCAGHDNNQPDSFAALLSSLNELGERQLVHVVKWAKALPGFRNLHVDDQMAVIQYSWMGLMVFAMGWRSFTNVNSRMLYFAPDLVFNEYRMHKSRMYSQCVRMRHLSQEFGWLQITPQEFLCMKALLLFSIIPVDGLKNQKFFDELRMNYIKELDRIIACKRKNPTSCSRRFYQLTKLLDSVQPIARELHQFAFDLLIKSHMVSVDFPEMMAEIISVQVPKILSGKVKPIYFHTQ
Briefly: cell-based. The procedure:
as §1, §2, §3

Data set [7] deals with T2, androgen receptor. Put plainly: AR (ARE) luciferase reporter assay, LNCaP cells (no ligand or DHT). The format is cell-based. How it is done:
as §1, §2, §3

For data set [8], the target named is androgen receptor (Homo sapiens, UniProt P10275). The data set is classed as cell-based. The procedure: as §1
as §2, with “value. […]” for “value.”

Data set [9] deals with de novo protein synthesis. More on the design: method as in Zalacain et al., 1982; Chan et al., 2004; Keysar et al., 2020. Particulars: ref Zalacain et al., 1982; Chan et al., 2004; Keysar et al., 2020; cited from earlier work.
Setting [10] is: IC50 for ARE-luciferase reporter, ligand: -.
[11] abbreviates: IC50 for ARE-luciferase reporter, ligand: DEX (50 nM).
The mark [12] stands for this setting: of patients, ref Cattrini et al., 2022.
[13] abbreviates: IC50 for ARE-luciferase reporter.
[14] abbreviates: read-out: IC50 for ARE-luciferase reporter.

Read-outs that look alike come from different tables or passages of the source.

androgen receptor (Homo sapiens, UniProt P10275), sequence (P10275 whole entry): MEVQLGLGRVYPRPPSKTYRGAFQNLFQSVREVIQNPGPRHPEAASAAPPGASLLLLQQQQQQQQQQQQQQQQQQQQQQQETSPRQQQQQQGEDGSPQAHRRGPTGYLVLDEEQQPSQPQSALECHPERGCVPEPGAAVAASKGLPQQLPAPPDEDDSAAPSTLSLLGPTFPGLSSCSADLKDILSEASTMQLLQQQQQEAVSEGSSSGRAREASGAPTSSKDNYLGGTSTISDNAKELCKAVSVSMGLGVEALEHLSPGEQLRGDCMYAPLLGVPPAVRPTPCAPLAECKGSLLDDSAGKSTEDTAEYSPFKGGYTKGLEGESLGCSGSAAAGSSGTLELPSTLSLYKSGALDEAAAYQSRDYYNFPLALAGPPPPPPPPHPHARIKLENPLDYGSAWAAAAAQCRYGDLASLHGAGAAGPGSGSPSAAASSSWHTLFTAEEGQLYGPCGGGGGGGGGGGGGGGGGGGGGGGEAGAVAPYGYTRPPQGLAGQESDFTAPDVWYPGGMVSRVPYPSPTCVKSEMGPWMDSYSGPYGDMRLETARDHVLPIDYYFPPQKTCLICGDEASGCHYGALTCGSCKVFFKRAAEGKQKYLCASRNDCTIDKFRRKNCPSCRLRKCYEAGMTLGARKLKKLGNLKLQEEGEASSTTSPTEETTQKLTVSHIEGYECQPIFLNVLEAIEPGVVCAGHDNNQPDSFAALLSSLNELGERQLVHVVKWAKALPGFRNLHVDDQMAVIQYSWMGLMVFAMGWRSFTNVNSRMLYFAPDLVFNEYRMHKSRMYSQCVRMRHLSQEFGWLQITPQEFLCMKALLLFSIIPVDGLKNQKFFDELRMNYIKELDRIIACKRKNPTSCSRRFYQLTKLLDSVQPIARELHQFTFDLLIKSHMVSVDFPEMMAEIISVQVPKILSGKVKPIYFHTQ

On to `CC(O)c1cc(C(=O)N[C@@H](C)Cn2ccc(-c3ccc(C#N)c(Cl)c3)n2)[nH]n1` (stereo partly shown) [darolutamide], for which the brain penetrance result in data set [1] is on record as “reductions in brain penetrance”. In data set [2] (human, in vivo), the “grade 3 adverse events or higher” value is recorded as “approximately 25%”; the “most common side effects” value was “fatigue, hypertension, diarrhea, and weight loss”. Moreover, in the data set on AR, the “selectivity and potency against AR” value was “higher selectivity and potency against AR”.
Regarding `COc1ccc(C[C@H]2C(=O)N[C@@H](C)C(=O)N(C)[C@H]3Cc4ccc(cc4)Oc4cc(ccc4OC)C[C@@H](C(=O)N[C@H](C)C(=O)N[C@@H](C)C(=O)N2C)N(C)C3=O)cc1` [RA-VII], the IC50 against glucocorticoid receptor [3] was determined as 0.0056 ± 0.0023 µM; against glucocorticoid receptor [4] (setting [10]) it was 0.032 ± 0.009 µM; at glucocorticoid receptor [4] (setting [11]) it was 0.0036 ± 0.0006 µM; on glucocorticoid receptor [5], 0.0135 ± 0.005 µM.
Turning to `CNC(=O)c1ccc(N2C(=S)N(c3ccc(C#N)c(C(F)(F)F)c3)C(=O)C2(C)C)cc1F` [Enzalutamide], the “inhibition of DEX-induced luciferase activity” value is recorded as “no effect” against glucocorticoid receptor [3] (LNCaP-GR, DEX 50 nM, 24 h) and “no effect” at glucocorticoid receptor [4] (DEX 50 nM). Moreover, the “grade 3 adverse events or higher” value in data set [2] (setting [12]) is given as “approximately 25%”. Also, the “most common side effects” value in data set [2] (ref Cattrini et al., 2022) is “fatigue, hypertension, diarrhea, and weight loss”. Besides, in the data set on 22RV1 tumor, the 22RV1 tumor growth entry is recorded as “not found to substantially decrease the growth of 22RV1 tumors”. In addition, the “inhibition of Dex-induced luciferase activity” value at glucocorticoid receptor [5] (22RV1, DEX 50 nM, 24 h) is “unable to inhibit GR-mediated luciferase activity”.
As to `COc1ccc(C[C@H]2C(=O)N[C@@H](C)C(=O)N(C)[C@H]3Cc4ccc(cc4)Oc4cc(ccc4O)C[C@@H](C(=O)N[C@H](C)C(=O)N[C@@H](CCC(=O)O)C(=O)N2C)N(C)C3=O)cc1` [RA-XI], the IC50 against androgen receptor [6] (setting [13]), on androgen receptor [6] (setting [14]), on glucocorticoid receptor [3], against androgen receptor [7] (setting [13]), at androgen receptor [7] (setting [14]) and at glucocorticoid receptor [4] (setting [10]) was over 0.25 µM each time. Further, the IC50 against glucocorticoid receptor [4] (setting [11]) and against glucocorticoid receptor [5] was over 0.25 µM in each case. For the same compound, the “comparative potency (anti-AR and anti-GR activity)” value at androgen receptor [8] was “significantly reduce the anti-AR and anti-GR activity”. The “inhibition of luciferase activity in any assay” value at androgen receptor [8] is listed as “did not inhibit luciferase activity in any assay”.
As for `COc1ccc(C[C@H]2C(=O)N[C@@H](C)C(=O)N(C)[C@H]3Cc4ccc(cc4)Oc4cc(ccc4O)C[C@@H](C(=O)N[C@H](C)C(=O)N[C@@H](C)C(=O)N2C)N(C)C3=O)cc1` [RA-V, Deoxybouvardin], the half-maximal inhibitory concentration (IC50) on androgen receptor [6] (LNCaP-GR, ligand: +DHT (25 nM), 24 h, read-out: IC50 for ARE-luciferase reporter) is 0.0041 ± 0.0013 µM; at androgen receptor [6] (LNCaP-GR, ligand: -, 24 h, read-out: IC50 for ARE-luciferase reporter) it was over 0.1 µM; at glucocorticoid receptor [3] (LNCaP-GR, ligand: +DEX (50 nM), 24 h, read-out: IC50 for ARE-luciferase reporter) it was 0.0078 ± 0.0022 µM; on androgen receptor [7] (LNCaP, ligand: +DHT (25 nM), 24 h, read-out: IC50 for ARE-luciferase reporter), 0.0053 ± 0.0014 µM; on androgen receptor [7] (LNCaP, ligand: -, 24 h, read-out: IC50 for ARE-luciferase reporter), over 0.1 µM; at glucocorticoid receptor [4] (ligand: -, read-out: IC50 for ARE-luciferase reporter) it was 0.04 ± 0.019 µM. Moreover, the concentration for half-maximal inhibition (IC50) at glucocorticoid receptor [4] (ligand: DEX (50 nM), read-out: IC50 for ARE-luciferase reporter) was 0.0057 ± 0.0023 µM; on glucocorticoid receptor [5] (22RV1, ligand: +DEX (50 nM), 24 h, read-out: IC50 for ARE-luciferase reporter), 0.022 ± 0.005 µM.
As for `CNC(=O)c1ccc(N2C(=S)N(c3cnc(C#N)c(C(F)(F)F)c3)C(=O)C23CCC3)cc1F` [apalutamide], the brain penetrance result in [1] is “reductions in brain penetrance”. Further, the “grade 3 adverse events or higher” value in [2] (setting [12]) was “approximately 25%”. Moreover, in data set [2] (ref Cattrini et al., 2022), the “most common side effects” value is “fatigue, hypertension, diarrhea, and weight loss”. In the data set with AR, the “selectivity and potency against AR” value was “higher selectivity and potency against AR”.
In the case of Bouvardin, in data set [9], the “inhibition of de novo protein synthesis” value is “can inhibit de novo protein synthesis”.

These data come from paper PMC10582333 (Frontiers in Pharmacology, 2023).
